Experimental data published in the NIST ThermoML archive (doi:10.1021/acs.jced.7b01034).
Numbers after ± are expanded uncertainties.

What was measured:
[1] = molar heat capacity at constant pressure; conditions: 100 kPa, Crystal, DSC
[2] = Crystal; DTA
[3] = Molar enthalpy of transition or fusion; conditions: Crystal; DSC

O=c1c(O)c(-c2ccccc2)oc2ccccc12 [3-hydroxyflavone]
[1]
Conditions	molar heat capacity at constant pressure [J/K/mol]
293.15 K	268.9 ± 13
298.15 K	270.1 ± 14
303.15 K	272.8 ± 14
308.15 K	275.3 ± 14
313.15 K	278.3 ± 14
318.15 K	280.8 ± 14
323.15 K	284.2 ± 14
328.15 K	287.6 ± 14
333.15 K	291.5 ± 15
338.15 K	295.2 ± 15
343.15 K	298.9 ± 15
348.15 K	303.2 ± 15
353.15 K	306.8 ± 15
358.15 K	310.8 ± 16
363.15 K	315 ± 16
368.15 K	319.4 ± 16
373.15 K	323.7 ± 16
378.15 K	328 ± 16
383.15 K	332 ± 17
388.15 K	336.9 ± 17
393.15 K	341.6 ± 17
398.15 K	346.8 ± 17
403.15 K	351.6 ± 18
408.15 K	356.3 ± 18
413.15 K	361.2 ± 18
418.15 K	366 ± 18
423.15 K	372.3 ± 19
428.15 K	379 ± 19
433.15 K	386 ± 19

Conditions	Molar enthalpy of transition or fusion [kcal/mol]	Normal melting temperature [°C]
[2]	–	170.5 ± 0.5
[3]	7.76 ± 0.287	–

O=c1cc(-c2ccccc2)oc2cccc(O)c12 [5-hydroxyflavone]
[1]
Conditions	molar heat capacity at constant pressure [J/K/mol]
293.15 K	274.6 ± 14
298.15 K	279.8 ± 14
303.15 K	285.1 ± 14
308.15 K	289.4 ± 14
313.15 K	297 ± 15
318.15 K	302.8 ± 15
323.15 K	307 ± 15
328.15 K	311.2 ± 16
333.15 K	312.9 ± 16
338.15 K	315.9 ± 16
343.15 K	319.5 ± 16
348.15 K	323.8 ± 16
353.15 K	328.8 ± 16
358.15 K	334.4 ± 17
363.15 K	338.5 ± 17
368.15 K	344.8 ± 17
373.15 K	347.9 ± 17
378.15 K	350.8 ± 18
383.15 K	355.6 ± 18
388.15 K	360.1 ± 18
393.15 K	365.3 ± 18
398.15 K	369.6 ± 18
403.15 K	373.8 ± 19
408.15 K	377.7 ± 19
413.15 K	382.3 ± 19
418.15 K	387.6 ± 19
423.15 K	395.5 ± 20

Conditions	Molar enthalpy of transition or fusion [kcal/mol]	Normal melting temperature [°C]
[2]	–	158 ± 0.5
[3]	6.49 ± 0.21	–

Nc1ccc2oc(-c3ccccc3)cc(=O)c2c1 [6-aminoflavone]
[1]
Conditions	molar heat capacity at constant pressure [J/K/mol]
293.15 K	272.6 ± 14
298.15 K	277.9 ± 14
303.15 K	283.4 ± 14
308.15 K	287.6 ± 14
313.15 K	292.2 ± 15
318.15 K	296.7 ± 15
323.15 K	301.6 ± 15
328.15 K	306.3 ± 15
333.15 K	311.1 ± 16
338.15 K	316.1 ± 16
343.15 K	320.4 ± 16
348.15 K	324.5 ± 16
353.15 K	328.9 ± 16
358.15 K	333.6 ± 17
363.15 K	338.1 ± 17
368.15 K	342.2 ± 17
373.15 K	346.1 ± 17
378.15 K	349.8 ± 18
383.15 K	353.8 ± 18
388.15 K	358.5 ± 18
393.15 K	361.8 ± 18
398.15 K	367.2 ± 18
403.15 K	371 ± 19
408.15 K	374.6 ± 19
413.15 K	378.3 ± 19
418.15 K	381.8 ± 19
423.15 K	385.4 ± 19
428.15 K	390.1 ± 20
433.15 K	395.3 ± 20
438.15 K	400.4 ± 20
443.15 K	406.4 ± 20
448.15 K	411.3 ± 21
453.15 K	418.5 ± 21
458.15 K	427.8 ± 21

Conditions	Molar enthalpy of transition or fusion [kcal/mol]	Normal melting temperature [°C]
[2]	–	198.8 ± 0.5
[3]	7.27 ± 0.263	–

O=c1cc(-c2ccccc2)oc2ccc(O)cc12 [6-hydroxyflavone]
[1]
Conditions	molar heat capacity at constant pressure [J/K/mol]
293.15 K	244.4 ± 12
298.15 K	250.3 ± 12
303.15 K	255.3 ± 13
308.15 K	260.4 ± 13
313.15 K	265.7 ± 13
318.15 K	271.1 ± 14
323.15 K	277 ± 14
328.15 K	282.6 ± 14
333.15 K	287.5 ± 14
338.15 K	292.7 ± 15
343.15 K	297.3 ± 15
348.15 K	302.4 ± 15
353.15 K	307.1 ± 15
358.15 K	312.4 ± 16
363.15 K	317.2 ± 16
368.15 K	321.9 ± 16
373.15 K	326.7 ± 16
378.15 K	330.6 ± 16
383.15 K	335.1 ± 17
388.15 K	339.8 ± 17
393.15 K	344.4 ± 17
398.15 K	348.9 ± 17
403.15 K	353.2 ± 18
408.15 K	358.3 ± 18
413.15 K	362.3 ± 18
418.15 K	365.8 ± 18
423.15 K	370.3 ± 18
428.15 K	373.7 ± 19
433.15 K	376.9 ± 19
438.15 K	380.8 ± 19
443.15 K	383.5 ± 19
448.15 K	385.7 ± 19
453.15 K	388.4 ± 19
458.15 K	391.5 ± 20
463.15 K	394.2 ± 20
468.15 K	397.1 ± 20
473.15 K	399.2 ± 20
478.15 K	402 ± 20
483.15 K	404.1 ± 20
488.15 K	406.1 ± 20
493.15 K	408.4 ± 20
498.15 K	412 ± 21

Conditions	Molar enthalpy of transition or fusion [kcal/mol]	Normal melting temperature [°C]
[2]	–	236.2 ± 0.5
[3]	7.75 ± 0.311	–

O=c1cc(-c2ccccc2)oc2cc(O)ccc12 [7-hydroxyflavone]
[1]
Conditions	molar heat capacity at constant pressure [J/K/mol]
293.15 K	248.1 ± 12
298.15 K	253.1 ± 13
303.15 K	259.1 ± 13
308.15 K	263.4 ± 13
313.15 K	268.2 ± 13
318.15 K	272 ± 14
323.15 K	276.8 ± 14
328.15 K	282.1 ± 14
333.15 K	286 ± 14
338.15 K	291.4 ± 15
343.15 K	295.3 ± 15
348.15 K	299.4 ± 15
353.15 K	303.6 ± 15
358.15 K	307.6 ± 15
363.15 K	312.3 ± 16
368.15 K	316.2 ± 16
373.15 K	320.7 ± 16
378.15 K	324.4 ± 16
383.15 K	328.2 ± 16
388.15 K	332.4 ± 17
393.15 K	336 ± 17
398.15 K	340.1 ± 17
403.15 K	343.3 ± 17
408.15 K	347 ± 17
413.15 K	351.4 ± 18
418.15 K	355.2 ± 18
423.15 K	358.2 ± 18
428.15 K	361.9 ± 18
433.15 K	366.3 ± 18
438.15 K	369.6 ± 18
443.15 K	372.3 ± 19
448.15 K	376.7 ± 19
453.15 K	379.5 ± 19
458.15 K	382.7 ± 19
463.15 K	385.8 ± 19
468.15 K	388.5 ± 19
473.15 K	390.8 ± 20
478.15 K	391.9 ± 20
483.15 K	394 ± 20
488.15 K	398.1 ± 20
493.15 K	400.9 ± 20
498.15 K	406.2 ± 20

Conditions	Molar enthalpy of transition or fusion [kcal/mol]	Normal melting temperature [°C]
[2]	–	242.1 ± 1.2
[3]	7.46 ± 0.287	–

c1ccc2cc3ccccc3cc2c1 [anthracene]
[1]
Conditions	molar heat capacity at constant pressure [J/K/mol]
293.15 K	205.7 ± 10
298.15 K	209.9 ± 10
303.15 K	213.9 ± 11
308.15 K	217.6 ± 11
313.15 K	221.7 ± 11
318.15 K	225.4 ± 11
323.15 K	229.6 ± 12
328.15 K	234.2 ± 12
333.15 K	237.9 ± 12
338.15 K	242.2 ± 12
343.15 K	246.5 ± 12
348.15 K	250.7 ± 12
353.15 K	254.9 ± 13
358.15 K	258.8 ± 13
363.15 K	262.9 ± 13
368.15 K	266.9 ± 13
373.15 K	270.6 ± 14
378.15 K	275.2 ± 14
383.15 K	279.2 ± 14
388.15 K	283.2 ± 14
393.15 K	286.9 ± 14
398.15 K	291.7 ± 15
403.15 K	295.8 ± 15
408.15 K	299.3 ± 15
413.15 K	303.3 ± 15
418.15 K	306.8 ± 15
423.15 K	309.9 ± 16
428.15 K	313.4 ± 16
433.15 K	317.4 ± 16

Conditions	Molar enthalpy of transition or fusion [kcal/mol]	Normal melting temperature [°C]
[2]	–	216.6 ± 0.6
[3]	7.33 ± 0.406	–

O=C(O)c1ccccc1 [benzoic acid]
[1]
Conditions	molar heat capacity at constant pressure [J/K/mol]
293.15 K	143.2 ± 7.2
298.15 K	145.2 ± 7.3
303.15 K	147.5 ± 7.4
308.15 K	149.6 ± 7.5
313.15 K	151.4 ± 7.6
318.15 K	153 ± 7.7
323.15 K	155.4 ± 7.8
328.15 K	157.8 ± 7.9
333.15 K	160 ± 8
338.15 K	162.2 ± 8.1
343.15 K	164.4 ± 8.2
348.15 K	166.6 ± 8.3
353.15 K	169.1 ± 8.5
358.15 K	171.7 ± 8.6
363.15 K	174.4 ± 8.7
368.15 K	176.8 ± 8.8
373.15 K	179.2 ± 9
378.15 K	182 ± 9.1
383.15 K	185.4 ± 9.3
388.15 K	190.1 ± 9.5

Conditions	Molar enthalpy of transition or fusion [kcal/mol]	Normal melting temperature [°C]
[2]	–	122.2 ± 0.5
[3]	4.44 ± 0.151	–

c1cc2ccc3cccc4ccc(c1)c2c34 [pyrene]
[1]
Conditions	molar heat capacity at constant pressure [J/K/mol]
293.15 K	221.9 ± 11
298.15 K	225.8 ± 11
303.15 K	230.2 ± 12
308.15 K	234.3 ± 12
313.15 K	238.7 ± 12
318.15 K	243 ± 12
323.15 K	247.5 ± 12
328.15 K	252.6 ± 13
333.15 K	258.1 ± 13
338.15 K	263.6 ± 13
343.15 K	268.9 ± 13
348.15 K	274.1 ± 14
353.15 K	279.8 ± 14
358.15 K	285.4 ± 14
363.15 K	291.4 ± 15
368.15 K	298.2 ± 15
373.15 K	304.6 ± 15
378.15 K	310.7 ± 16
383.15 K	317.5 ± 16
388.15 K	325.7 ± 16
393.15 K	333.7 ± 17
398.15 K	341.5 ± 17
403.15 K	349.9 ± 18
408.15 K	359.2 ± 18
413.15 K	372.2 ± 19

Conditions	Molar enthalpy of transition or fusion [kcal/mol]	Normal melting temperature [°C]
[2]	–	150.8 ± 0.8
[3]	4.15 ± 0.155	–
